Data set [1] has as its system C. albicans. Kind of data set: Minimum Inhibitory Concentrations (MICs) against C. albicans, NCCLS M27-A broth dilution. Type of data set: cell-based. The settings on record: Candida albicans, read-out: MIC. As to the method: For each compound synthesized, Minimum Inhibitory Concentrations (MICs) against C. albicans were determined as described in Reference Method for Broth Dilution Antifungal Susceptibility Testing of Yeasts, Approved Standard, NCCLS document M27-A (ISBN 1-56238-328-0), NCCLS, 940 West Valley Road, Suite 1400, Wayne, Pa. 19087, 1997.

Data set [2] can be described thus: Maximum non-lethal dose (NLD), single intravenous dose in mice. The class given is in vivo, Swiss-Webster male mice. The settings on record: test compounds as aspartate salts in 5% mannitol, AmB as FUNGIZONE
As to the method:
A variety of the compounds synthesized as described in Section 5, supra, were tested in various in vivo assays, as described below. The results of the various assays are provided in TABLE 3, presented at the end of this section. In all of the in vivo assays described, the test compounds, in the form of the aspartate salts, were formulated in an aqueous vehicle (5% mannitol in sterile water; OSMITROL, Baxter Healthcare, Deerfield, Ill.), followed by appropriate dilutions. The formulations were prepared fresh before dosing.
AmB and AME were also tested for comparison. For AmB, the commercially available FUNGIZONE (Bristol-Meyers Squibb Co.) was used. Reported values are based upon the weight of the AmB active ingredient, not on the basis of the weight of the FUNGIZONE powder. AME was formulated in OSMITROL as described for the test compounds.
Maximum non-lethal dose (NLD) data were obtained for selected compounds. A single intravenous dose was administered to each of four mice (Swiss-Webster male mice; Simonsen Laboratories, Gilroy, Calif.) in several groups. The doses selected were based upon the NLDs of compounds of similar structures. After review of findings, higher or lower doses were administered and a NLD was determined. The results are tabulated in TABLE 3, below (NLD Acute Mice). The values for AmB and AME are provided for comparison

Molecules are shown by their SMILES. ≈ marks a conversion by molar mass, not a printed value.

For orientation: MIC means the least concentration at which growth counts as inhibited. Regarding `CC1[C@H](C)OC(=O)C[C@H](O)C[C@H](O)CC[C@@H](O)[C@H](O)C[C@H](O)C[C@]2(O)C[C@H](O)C(C(=O)N3CCN(C)CC3)C(C[C@@H](OC3O[C@H](C)[C@@H](O)[C@H](NC[C@@]4(O)OC[C@@H](O)[C@@H](OC5O[C@H](CO)[C@H](O)[C@H](O)[C@H]5O)[C@@H]4O)[C@@H]3O)/C=C/C=C/C=C/C=C/C=C/C=C/C=C/[C@H](C)[C@H]1O)O2` (some centres unmarked) [Compound 146], the MIC in data set [1] was found to be 2 µg/mL (≈ 1.5 µM). For the same compound, the NLD acute mice in data set [2] is under 7.5 mg/kg.
As to `CC1[C@H](C)OC(=O)C[C@H](O)C[C@H](O)CC[C@@H](O)[C@H](O)C[C@H](O)C[C@]2(O)C[C@H](O)C(C(=O)NCCc3ccccn3)C(C[C@@H](OC3O[C@H](C)[C@@H](O)[C@H](NC[C@@]4(O)OC[C@@H](O)[C@@H](O)[C@@H]4O)[C@@H]3O)/C=C/C=C/C=C/C=C/C=C/C=C/C=C/[C@H](C)[C@H]1O)O2` (some centres unmarked) [Compound 101], in data set [1], the MIC turned out to be 4 µg/mL (≈ 3.36 µM).
For `CC1[C@H](C)OC(=O)C[C@H](O)C[C@H](O)CC[C@@H](O)[C@H](O)C[C@H](O)C[C@]2(O)C[C@H](O)C(C(=O)NN3CCN(C)CC3)C(C[C@@H](OC3O[C@H](C)[C@@H](O)[C@H](NC[C@@]4(O)OC[C@@H](O)[C@@H](O)[C@@H]4O)[C@@H]3O)/C=C/C=C/C=C/C=C/C=C/C=C/C=C/[C@H](C)[C@H]1O)O2` (some centres unmarked) [Compound 100], the MIC in data set [1] amounted to 2 µg/mL (≈ 1.69 µM).
Turning to `CC1[C@H](C)OC(=O)C[C@H](O)C[C@H](O)CC[C@@H](O)[C@H](O)C[C@H](O)C[C@]2(O)C[C@H](O)C(C(=O)NCCc3cccs3)C(C[C@@H](OC3O[C@H](C)[C@@H](O)[C@H](NC[C@@]4(O)OC[C@@H](O)[C@@H](OC5O[C@H](CO)[C@@H](O)[C@H](O)[C@H]5O)[C@@H]4O)[C@@H]3O)/C=C/C=C/C=C/C=C/C=C/C=C/C=C/[C@H](C)[C@H]1O)O2` (some centres unmarked) [Compound 121], the MIC in data set [1] was 8 µg/mL (≈ 5.89 µM).
For the compound `CC1[C@H](C)OC(=O)C[C@H](O)C[C@H](O)CC[C@@H](O)[C@H](O)C[C@H](O)C[C@]2(O)C[C@H](O)C(C(=O)N[C@@H]3C(O)O[C@H](CO)[C@@H](O)[C@@H]3O)C(C[C@@H](OC3O[C@H](C)[C@@H](O)[C@H](N)[C@@H]3O)/C=C/C=C/C=C/C=C/C=C/C=C/C=C/[C@H](C)[C@H]1O)O2` (some centres unmarked) [Compound 125], the MIC in data set [1] amounted to 1 µg/mL (≈ 0.921 µM). Moreover, the NLD acute mice in data set [2] amounted to 8 mg/kg.
`CC1[C@H](C)OC(=O)C[C@H](O)C[C@H](O)CC[C@@H](O)[C@H](O)C[C@H](O)C[C@]2(O)C[C@H](O)C(C(=O)N[C@H]3C(O)O[C@H](CO)[C@H](O)[C@@H]3O)C(C[C@@H](OC3O[C@H](C)[C@@H](O)[C@H](N)[C@@H]3O)/C=C/C=C/C=C/C=C/C=C/C=C/C=C/[C@H](C)[C@H]1O)O2` (some centres unmarked) [Compound 124]: the MIC in data set [1] is 1 µg/mL (≈ 0.921 µM). In addition, the NLD acute mice in data set [2] was determined as 16 mg/kg.
Regarding `CC1[C@H](C)OC(=O)C[C@H](O)C[C@H](O)CC[C@@H](O)[C@H](O)C[C@H](O)C[C@]2(O)C[C@H](O)C(C(=O)NCC(O)CO)C(C[C@@H](OC3O[C@H](C)[C@@H](O)[C@H](NC[C@@]4(O)OC[C@@H](O)[C@@H](O)[C@@H]4O)[C@@H]3O)/C=C/C=C/C=C/C=C/C=C/C=C/C=C/[C@H](C)[C@H]1O)O2` (some centres unmarked) [Compound 105], the minimum inhibitory concentration (MIC) in data set [1] amounted to 2 µg/mL (≈ 1.73 µM).
Regarding `CC1[C@H](C)OC(=O)C[C@H](O)C[C@H](O)CC[C@@H](O)[C@H](O)C[C@H](O)C[C@]2(O)C[C@H](O)C(C(=O)N3CCOCC3)C(C[C@@H](OC3O[C@H](C)[C@@H](O)[C@H](NC[C@@]4(O)OC[C@@H](O)[C@H](O)[C@@H]4O)[C@@H]3O)/C=C/C=C/C=C/C=C/C=C/C=C/C=C/[C@H](C)[C@H]1O)O2` (some centres unmarked) [Compound 137], in data set [1], the MIC came out at 2 µg/mL (≈ 1.73 µM). The NLD acute mice in data set [2] was 5 mg/kg.
The like results for `CC1[C@H](C)OC(=O)C[C@H](O)C[C@H](O)CC[C@@H](O)[C@H](O)C[C@H](O)C[C@]2(O)C[C@H](O)C(C(=O)N3CCN(CCO)CC3)C(C[C@@H](OC3O[C@H](C)[C@@H](O)[C@H](NC[C@@]4(O)OC[C@@H](O)[C@@H](OC5O[C@H](CO)[C@H](O)[C@H](O)[C@H]5O)[C@@H]4O)[C@@H]3O)/C=C/C=C/C=C/C=C/C=C/C=C/C=C/[C@H](C)[C@H]1O)O2` (some centres unmarked) [Compound 147] were, in that order, 2 µg/mL (≈ 1.47 µM) and under 7.5 mg/kg.
With `CC1[C@H](C)OC(=O)C[C@H](O)C[C@H](O)CC[C@@H](O)[C@H](O)C[C@H](O)C[C@]2(O)C[C@H](O)C(C(=O)NCCN3CCCCC3)C(C[C@@H](OC3O[C@H](C)[C@@H](O)[C@H](NC[C@@]4(O)OC[C@@H](O)[C@@H](OC5O[C@H](CO)[C@@H](O)[C@H](O)[C@H]5O)[C@@H]4O)[C@@H]3O)/C=C/C=C/C=C/C=C/C=C/C=C/C=C/[C@H](C)[C@H]1O)O2` (some centres unmarked) [Compound 120], the MIC in data set [1] was determined as 8 µg/mL (≈ 5.89 µM).
Take `CC1[C@H](C)OC(=O)C[C@H](O)C[C@H](O)CC[C@@H](O)[C@H](O)C[C@H](O)C[C@]2(O)C[C@H](O)C(C(=O)NCC(O)C(O)C(O)C(O)CO)C(C[C@@H](OC3O[C@H](C)[C@@H](O)[C@H](N)[C@@H]3O)/C=C/C=C/C=C/C=C/C=C/C=C/C=C/[C@H](C)[C@H]1O)O2` (some centres unmarked) [Compound 126]: in data set [1], the MIC turned out to be 3 µg/mL (≈ 2.76 µM).
On to `CC1[C@H](C)OC(=O)C[C@H](O)C[C@H](O)CC[C@@H](O)[C@H](O)C[C@H](O)C[C@]2(O)C[C@H](O)C(C(=O)NCCc3ccccn3)C(C[C@@H](OC3O[C@H](C)[C@@H](O)[C@H](NC[C@@]4(O)OC[C@@H](O)[C@@H](OC5O[C@H](CO)[C@@H](O)[C@H](O)[C@H]5O)[C@@H]4O)[C@@H]3O)/C=C/C=C/C=C/C=C/C=C/C=C/C=C/[C@H](C)[C@H]1O)O2` (some centres unmarked) [Compound 116], for which the MIC in data set [1] came to 8 µg/mL (≈ 5.91 µM).
The same measure, in the same setting: the result for `CC1[C@H](C)OC(=O)C[C@H](O)C[C@H](O)CC[C@@H](O)[C@H](O)C[C@H](O)C[C@]2(O)C[C@H](O)C(C(=O)NCC(O)C(O)C(O)C(O)CO)C(C[C@@H](OC3O[C@H](C)[C@@H](O)[C@H](NC[C@@]4(O)OC[C@@H](O)[C@@H](OC5O[C@H](CO)[C@@H](O)[C@H](O)[C@H]5O)[C@@H]4O)[C@@H]3O)/C=C/C=C/C=C/C=C/C=C/C=C/C=C/[C@H](C)[C@H]1O)O2` (some centres unmarked) [Compound 117] reads 8 µg/mL (≈ 5.67 µM); that for `CC1[C@H](C)OC(=O)C[C@H](O)C[C@H](O)CC[C@@H](O)[C@H](O)C[C@H](O)C[C@]2(O)C[C@H](O)C(C(=O)NCCc3ccccn3)C(C[C@@H](OC3O[C@H](C)[C@@H](O)[C@H](NC[C@@]4(O)OC[C@@H](O)[C@H](O)[C@@H]4O)[C@@H]3O)/C=C/C=C/C=C/C=C/C=C/C=C/C=C/[C@H](C)[C@H]1O)O2` (some centres unmarked) [Compound 109], 2 µg/mL (≈ 1.68 µM).
Still for that read-out and setting: the result for `CC1[C@H](C)OC(=O)C[C@H](O)C[C@H](O)CC[C@@H](O)[C@H](O)C[C@H](O)C[C@]2(O)C[C@H](O)C(C(=O)NN3CCN(C)CC3)C(C[C@@H](OC3O[C@H](C)[C@@H](O)[C@H](NC[C@@]4(O)OC[C@@H](O)[C@H](O)[C@@H]4O)[C@@H]3O)/C=C/C=C/C=C/C=C/C=C/C=C/C=C/[C@H](C)[C@H]1O)O2` (some centres unmarked) [Compound 108] reads 4 µg/mL (≈ 3.38 µM).
As for `CC1[C@H](C)OC(=O)C[C@H](O)C[C@H](O)CC[C@@H](O)[C@H](O)C[C@H](O)C[C@]2(O)C[C@H](O)C(C(=O)N3CCOCC3)C(C[C@@H](OC3O[C@H](C)[C@@H](O)[C@H](NC[C@@]4(O)OC[C@@H](O)[C@@H](O)[C@@H]4O)[C@@H]3O)/C=C/C=C/C=C/C=C/C=C/C=C/C=C/[C@H](C)[C@H]1O)O2` (some centres unmarked) [Compound 131], in data set [1], the MIC amounted to 4 µg/mL (≈ 3.46 µM). In addition, the NLD acute mice in data set [2] is listed as 5 mg/kg.
For `CC1[C@H](C)OC(=O)C[C@H](O)C[C@H](O)CC[C@@H](O)[C@H](O)C[C@H](O)C[C@]2(O)C[C@H](O)C(C(=O)N[C@H]3C(O)O[C@H](CO)[C@@H](O)[C@@H]3O)C(C[C@@H](OC3O[C@H](C)[C@@H](O)[C@H](N)[C@@H]3O)/C=C/C=C/C=C/C=C/C=C/C=C/C=C/[C@H](C)[C@H]1O)O2` (some centres unmarked) [Compound 123], in that order: 5.3 µg/mL (≈ 4.88 µM) and 32 mg/kg.
`Cc1cc(NC(=O)C2C3C[C@@H](OC4O[C@H](C)[C@@H](O)[C@H](NC[C@@]5(O)OC[C@@H](O)[C@@H](O)[C@@H]5O)[C@@H]4O)/C=C/C=C/C=C/C=C/C=C/C=C/C=C/[C@H](C)[C@@H](O)C(C)[C@H](C)OC(=O)C[C@H](O)C[C@H](O)CC[C@@H](O)[C@H](O)C[C@H](O)C[C@](O)(C[C@@H]2O)O3)no1` (some centres unmarked) [Compound 102]: the MIC in data set [1] amounted to 2.7 µg/mL (≈ 2.31 µM).
Still for that read-out and setting: the result for `CC1[C@H](C)OC(=O)C[C@H](O)C[C@H](O)CC[C@@H](O)[C@H](O)C[C@H](O)C[C@]2(O)C[C@H](O)C(C(=O)NCC(O)CO)C(C[C@@H](OC3O[C@H](C)[C@@H](O)[C@H](NC[C@@]4(O)OC[C@@H](O)[C@@H](OC5O[C@H](CO)[C@@H](O)[C@H](O)[C@H]5O)[C@@H]4O)[C@@H]3O)/C=C/C=C/C=C/C=C/C=C/C=C/C=C/[C@H](C)[C@H]1O)O2` (some centres unmarked) [Compound 119] reads 8 µg/mL (≈ 6.05 µM).

The record behind these values is US6664241B2, “Water-soluble amide derivatives of polyene macrolides and preparation and uses thereof” (Micrologix Biotech Inc., priority 2000, dated 2003).
